Experimental data from patent publication US8124137B2, “Composition for prevention and/or treatment of tumors containing acacia bark derivative” (Mimozax Co., Ltd., priority 2006, dated 2012).

Test system: mouse tumor MM46 breast cancer cells
Test: Tumor growth inhibition test in mice
Assay type: in vivo
Conditions: Positive Control group: 6.25 mg/kg intraperitoneally on days 7, 11 and 14
Procedure: The required weighed amounts of Acacia Hot Water Extract No. 1 described in Production Example 2 were dispersed in water at 60° C. to prepare test drinks 1, 2 and 3 containing Acacia Hot Water Extract No. 1 at 7.8 mg/mL, 15.6 mg/mL and 31.3 mg/mL, respectively.
The required weighed amounts of Acacia Hot Water Extract No. 1 described in Production Example 2 were mixed with commercially available feed to prepare test feeds 2 and 3 containing Acacia Hot Water Extract No. 1 at 15.6 mg/g and 31.3 mg/g, respectively.
Female C3H/HeN mice were assigned to a Control 1 group, Test 1 group, Test 2 group, Test 3 group and Positive Control group as shown in the table below.
First, 2×10^6 mouse tumor MM46 breast cancer cells were transplanted subcutaneously into the inguinal region of the mice grouped as indicated above according to the method described in Abe, S. et al., Gann 73, 91-96 (1982) and Ohasi, K. et al., Yakugaku Zasshi 113, 396-399 (1993).
Tap water was given to the Control 1 group while Test Drinks 1 to 3 were given to the Test 1 to Test 3 groups, respectively, as drinking water, starting on the day of tumor transplantation. In addition, tap water was given to the Positive Control group, and this group was also intraperitoneally administered 6.25 mg/kg of lentinan on days 7, 11 and 14 following tumor transplantation.
Consequently, Test Drink 2 and Test Drink 3 were replaced with tap water on day 7 of tumor transplantation. In addition, five mice each of the Test 2 group were reassigned to a Control 2 group and a Test 2a group, while five mice each of the Test 3 group were reassigned to a Control 3 group and a Test 3a group. Animals of the Control 2 group and Control 3 group were continued to be fed the control feed. The Test 2a group and Test 3a group were fed Test Feed 2 and Test Feed 3, respectively, instead of the control feed.
Growth of the tumor transplanted subcutaneously into the inguinal regions of the mice was observed by palpation for 4 weeks every 3 or 4 days, and tumor diameter was also measured. In addition, survival times (days) and body weights were also measured. The tumors were excised and their wet weights were measured following completion of the test.
Furthermore, the Student's t-test was used for statistical testing.

Substance: lentinan
- Average tumor diameter (day 14 after transplantation): 7.4 ± 6.58 mm
- reduction rate versus Control 1 group (average tumor diameter) (day 14 after transplantation): 43.5%
- Average tumor diameter (day 28 after transplantation): 14.0 ± 6.12 mm
- reduction rate versus Control 1 group (average tumor diameter) (day 28 after transplantation): 41.2%
